Source: patent US4065356A, “Production of antibiotic FR-02A (efrotomycin) by streptomyces lactamdurans” (priority 1977, dated 1977)
Where a name gives a salt, the structure may show the parent alone.

Test: solubility
Type: physicochemical

Question: With `CO[C@@]1(NC(=O)CCC[C@@H](N)C(=O)O)C(=O)N2C(C(=O)O)=C(COC(N)=O)CS[C@@H]21` [Cephamycin C, reference compound] as the molecule, how does the “solubility in water-immiscible organic solvents” value (water-immiscible organic solvents) read?
Answer: The value was “virtually insoluble”.

Question: For `CC=CC=CC1OC(O)(C(CC)C(=O)NCC=CC=C(C)C(OC)C(C)C2OC(C=CC=CC=C(C)C(=O)c3c(O)ccn(C)c3=O)C(O)C2O)C(O)C(OC2OC(C)C(OC3OC(C)C(OC)C(O)C3OC)C(OC)C2O)C1(C)C` (stereo not drawn) [FR-02A as the ammonium salt], which “solubility in alcohol and chloroform” value (ammonium salt, alcohol and chloroform) is on record?
Answer: Its value is “soluble”.

Question: What about the solubility in water (ammonium salt, water at pH 7.0 or higher) of the same molecule?
Answer: Its solubility in water is “moderately soluble”.
